# Legend:
# Type in all cases: physicochemical
# [1] = Effect of pH on formation of related compounds, aqueous composition stored at 27.5° C. for 7 months
# Description: (§1) The effect of the pH of the aqueous fludarabine phosphate composition on the stability of the compositions at elevated temperatures also is shown in Tables 2 and 3. The concentration of fludarabine phosphate in each of the compositions of Tables 2 and 3 was 25 mg/mL.
# [2] = Effect of pH on formation of related compounds, aqueous compositions stored at 40° C. for 1 month
# Description: The effect of the pH of the aqueous fludarabine phosphate composition on the stability of the compositions at elevated temperatures is shown in the following table. The concentration of fludarabine phosphate in each of the compositions of Table 1 was 25 mg/mL.
# Its level of “total related compounds” was 0.1%. In contrast, after being stored for 1 months at 40° C., the fludarabine phosphate composition having a pH of 7.7 contained 0.8 of FP-2HA and 1.3% “total related compounds.”
# [3] = Effect of pH on formation of related compounds, aqueous composition stored at 40° C. for 1 month followed by one-year storage at 2-8° C.; conditions: 25 mg/mL, 40° C. 1 month then one year 2-8° C.
# Description: as §1
# [4] = pH 5.5, 25 mg/mL aqueous composition
# [5] = pH 6.5, 25 mg/mL aqueous composition
# [6] = pH 7.7, 25 mg/mL aqueous composition
# [7] = pH 8.1, 25 mg/mL aqueous composition
substance,measurement,setting,value
Fludarabine phosphate,"Concentration of FP-2HA, %","[1]; pH 6.8, 25 mg/mL",0.33%
same,"Single Largest Other, %","[1]; pH 6.8, 25 mg/mL",0.1%
same,"Total Related Compounds*, % (excluding fludarabine)","[1]; pH 6.8, 25 mg/mL",0.43%
same,"Concentration of FP-2HA, %","[1]; pH 7.2, 25 mg/mL",0.54%
same,"Single Largest Other, %","[1]; pH 7.2, 25 mg/mL",0.1%
same,"Total Related Compounds*, % (excluding fludarabine)","[1]; pH 7.2, 25 mg/mL",0.94%
same,"Concentration of FP-2HA, %",[2]; [4],<LOQ
same,"Total Related Compounds*, % (excluding fludarabine)",[2]; [4],0.1%
same,"Concentration of FP-2HA, %",[2]; [5],<LOQ
same,"Total Related Compounds*, % (excluding fludarabine)",[2]; [5],0.2%
same,"Concentration of FP-2HA, %",[2]; [6],0.8%
same,"Total Related Compounds*, % (excluding fludarabine)",[2]; [6],1.3%
same,"Concentration of FP-2HA, %",[2]; [7],1.0%
same,"Total Related Compounds*, % (excluding fludarabine)",[2]; [7],2.2%
same,"Concentration of FP-2HA, %",[3]; pH 6.0,0.4%
same,"Single Largest Other, %",[3]; pH 6.0,0.09%
same,"Total Related Compounds*, % (excluding fludarabine)",[3]; pH 6.0,0.5%
same,"Concentration of FP-2HA, %",[3]; pH 7.0,0.32%
same,"Single Largest Other, %",[3]; pH 7.0,0.1%
same,"Total Related Compounds*, % (excluding fludarabine)",[3]; pH 7.0,0.34%
same,"Concentration of FP-2HA, %",[3]; pH 7.6,0.56%
same,"Single Largest Other, %",[3]; pH 7.6,0.2%
same,"Total Related Compounds*, % (excluding fludarabine)",[3]; pH 7.6,1.1%
same,"Concentration of FP-2HA, %",[3]; pH 8.1,0.93%
same,"Single Largest Other, %",[3]; pH 8.1,0.4%
same,"Total Related Compounds*, % (excluding fludarabine)",[3]; pH 8.1,2.0%

# From patent US20040006041A1, “Aqueous fludarabine phosphate composition” (priority 2002, published 2004)
